Results reported in article PMC6523814, “Small-Molecule Host-Defense Peptide Mimetic Antibacterial and Antifungal Agents Activate Human and Mouse Mast Cells via Mas-Related GPCRs” (Cells, 2019).
In brackets after ≈: the same amount, converted by molar mass.

What was measured:
[1] = system: methicillin-resistant S. aureus (MRSA); design: method as in PMID 26501484; conditions: cited from earlier work
[2] = system: Candida albicans (ATCC GDH2346); experiment: Fungus MIC assay (CLSI C27-A3); format: cell-based; conditions: RPMI/MOPS pH 7.0, 35 °C, 48 h; for MIC: Candida albicans
Protocol: (§1) Fungal strains included a clinical isolate of Candida albicans (ATCC GDH2346), Aspergillus fumigatus (ATCC MYA-3626), and Aspergillus flavus (ATCC 204304). Minimum inhibitory concentration (MIC) assays were carried out in 96-well plates using the Clinical and Laboratory Standards Institute (CLSI) method C27-A3 for C. albicans and M38-A2 for Aspergillus species. smHDPMs, each in stock solutions of 10 mM in DMSO, were diluted in 50 µL RPMI/MOPS pH 7.0 in a 96-well plate and 50 µL of diluted yeast were added to each well. […] The plate was then incubated at 35 °C for 48 h. […] All MIC assays were performed in duplicate.

MRGPRX2 = biological target: T1, MRGPRX2 (Homo sapiens, UniProt Q96LB1); experiment: Degranulation (β-hexosaminidase release) in RBL-2H3 cells expressing MRGPRX2; format: cell-based; conditions: for EC50: RBL-2H3 cells stably expressing MRGPRX2, 30 min; for percentage degranulation (β-hexosaminidase release): 3 µM, 30 min, RBL-2H3 cells stably expressing MRGPRX2
T1 construct: HA (hemagglutinin)
T1 sequence (Q96LB1 1-330): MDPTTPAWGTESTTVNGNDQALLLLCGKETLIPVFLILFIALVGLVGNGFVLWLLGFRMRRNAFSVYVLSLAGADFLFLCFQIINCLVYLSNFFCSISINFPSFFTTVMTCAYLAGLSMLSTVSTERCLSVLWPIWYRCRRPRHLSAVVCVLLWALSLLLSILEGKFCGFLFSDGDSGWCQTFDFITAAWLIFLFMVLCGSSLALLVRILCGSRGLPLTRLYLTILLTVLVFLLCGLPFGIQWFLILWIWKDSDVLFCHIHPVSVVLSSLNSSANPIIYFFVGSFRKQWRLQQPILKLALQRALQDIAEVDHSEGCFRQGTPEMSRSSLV
Protocol: The human mast cell line, LAD2, was maintained in complete StemPro-34 medium supplemented with L-glutamine (2 mM), penicillin (100 IU/mL), streptomycin (100 μg/mL), and 100 ng/mL recombinant human stem cell factor (rhSCF). Hemidepletions were performed weekly with media containing rhSCF (100 ng/mL). Rat basophilic leukemia (RBL-2H3) cells were maintained as monolayer cultures in DMEM supplemented with 10% FBS, L-glutamine (2 mM), penicillin (100 IU/mL), and streptomycin (100 μg/mL). Peritoneal mast cells (PMCs) were obtained from 6–8 weeks old C57BL/6 and Mrgprb2^-/- (C57BL/6 background) mice using i.p. injection of 8 mL MC disassociation medium that was made of HBSS with 3% FCS and 10 mM HEPES. The cells were cultured in Iscove’s Modified Dulbecco’s Medium (IMDM) supplemented with 10% FCS, murine IL-3 (10 ng/mL), and murine SCF (30 ng/mL). After 48 h, the medium and the suspended cells were removed and replaced with fresh medium containing murine IL-3 (10 ng/mL) and murine SCF (30 ng/mL). The floating cells were then used for the experiment within 2–3 weeks. Bone-marrow-derived mast cells (BMMCs) were harvested by flushing bone marrow cells from the femurs of C57BL/6 mice and culturing the cells for 4–8 weeks in IMDM supplemented with 10% FCS, murine IL-3 (10 ng/mL). The cells were then used within 4–8 weeks.
Cells (2 ×10^6) were transfected with plasmids (2 µg/µL) encoding MRGPRX2 or MRGPRX2 missense mutants using the Amaxa kit V using Amaxa Nucleofector device according to the manufacturer’s protocol. For stable transfection, cells were cultured in the presence of G-418 (1 mg/mL) and used within one month of transfection. For transient transfection, cells were used within 16–20 h after transfection. To detect MRGPRX2 expression, cells (1 × 10^6) were incubated with the PE-conjugated anti-MRGPRX2 antibody, washed in FACS buffer, fixed, and analyzed on a BD LSR II flow cytometer.
RBL-2H3 cells (5 × 10^4), LAD2 cells (10 × 10^4), and PMCs (5 × 10^3), BMMCs (5 × 10^4), were seeded into 96-well plates in a total volume of 50 μl HEPES buffer containing 0.1% bovine serum albumin (BSA) and exposed to ligands for 30 min. Cells without treatment were designated as control. In some experiments, cells were treated with Pertussis toxin (PTx). For total β-hexosaminidase release, unstimulated cells were lysed in 50 μl of 0.1% Triton X-100. Aliquots (20 μl) of supernatants or cell lysates were incubated with 20 μl of 1 mM p-nitrophenyl-N-acetyl-β- D-glucosamine for 1 h at 37 °C. The reaction was stopped by adding 250 μl of a 0.1 M Na2CO3/0.1 M NaHCO3 buffer and absorbance was measured at 405 nm.

[3] = system: Aspergillus flavus (ATCC 204304); experiment: Fungus MIC assay (CLSI M38-A2); format: cell-based; conditions: RPMI/MOPS pH 7.0, 35 °C, 48 h; for MIC: Aspergillus flavus, ATCC204304
Protocol: as §1

[4] = system: Aspergillus fumigatus (ATCC MYA-3626); experiment: Fungus MIC assay (CLSI M38-A2); format: cell-based; conditions: RPMI/MOPS pH 7.0, 35 °C, 48 h; for MIC: Aspergillus fumigatus
Protocol: as §1

[5] = system: human transformed liver HepG2 cells (ATCC HB-8065); experiment: Cytotoxicity, MTS viability assay; format: cell-based
Protocol: (§2) Cytotoxicity (50% […] concentration, CC50) was determined against mouse 3T3 fibroblasts (ATCC CRL-1658) and human transformed liver HepG2 cells (ATCC HB-8065) using an MTS viability assay according to the manufacturer’s protocol (Promega CellTiter 96 aqueous nonradioactive cell proliferation assay). Briefly, 3T3 cells were seeded at 2 × 10^4 cells/well in Dulbecco’s modified Eagle’s medium (DMEM) supplemented with 10% bovine calf serum and HepG2 cells were seeded at 3 × 10^4 cells/well in MEM supplemented with 10% fetal bovine serum. After 24 h of growth, the culture medium was replaced with medium lacking serum, and eight two-folds dilutions of each of the five compounds were added. […] Following incubation for 1 h at 37 °C, compound solutions were removed and medium containing serum was replenished. Viability was determined by addition of the tetrazolium compound, MTS, and the electron coupling agent, PMS, and then incubation at 37 °C for 2 h (3T3 cells) or 3 h (HepG2 cells) followed by absorbance measurements at 490 nm. The CC50 was calculated using GraphPad Prism software (nonlinear fit).

[6] = Cytotoxicity, MTS viability assay; format: cell-based, human; conditions: human, HepG2 cells (ATCC HB-8065); 1 h exposure in serum-free medium, MTS
Protocol: as §2

[7] = system: mouse 3T3 fibroblasts (ATCC CRL-1658); experiment: Cytotoxicity, MTS viability assay; format: cell-based; conditions: for fold less cytotoxic than Compound 2: CC50 in 3T3 and HepG2 cells relative to Compound 2
Protocol: as §2

[8] = Cytotoxicity, MTS viability assay; format: cell-based, mouse; conditions: mouse, 3T3 fibroblasts (ATCC CRL-1658); 1 h exposure in serum-free medium, MTS
Protocol: as §2

[9] = system: Pseudomonas aeruginosa [ATCC 10145]; experiment: Bacterial MIC assay (Hancock modified broth assay); format: cell-based; conditions: ATCC10145, cation-adjusted Mueller–Hinton, 18 h
Protocol: (§3) were tested for antibacterial activities against three Gram-negative bacteria (Escherichia coli [ATCC 25922], Pseudomonas aeruginosa [ATCC 10145], and Klebsiella pneumonia [ATCC 13883]) and two Gram-positive bacteria (Staphylococcus aureus [ATCC 27660] and Enterococcus faecalis [ATCC 29212]) using the Hancock modified broth assay. Three milliliters cation-adjusted Mueller-Hinton medium was inoculated with 20 μL of frozen bacterial stock and incubated at 37 °C on a shaker platform (250 rpm) overnight. […] All samples were done in duplicate. One set of control wells included broth-only samples with dilution buffer for testing sterility and providing blank values for the assay readings. Vehicle-control wells containing the bacterial suspension with DMSO (no compound) were also included. Following the overnight incubation (18 h), the cell growth was assessed by observing the presence of “acceptable growth”, defined by CLSI as a ≥2 mm button or definite turbidity. MIC was defined as the lowest concentration where acceptable growth is not observed.

[10] = system: Escherichia coli [ATCC 25922]; experiment: Bacterial MIC assay (Hancock modified broth assay); format: cell-based; conditions: cation-adjusted Mueller–Hinton, 18 h; for MIC: Escherichia coli, ATCC25922
Protocol: as §3

[11] = system: Enterococcus faecalis [ATCC 29212]; experiment: Bacterial MIC assay (Hancock modified broth assay); format: cell-based; conditions: ATCC29212, cation-adjusted Mueller–Hinton, 18 h
Protocol: as §3

[12] = system: Klebsiella pneumonia [ATCC 13883]; experiment: Bacterial MIC assay (Hancock modified broth assay); format: cell-based; conditions: Klebsiella pneumoniae, ATCC13883; cation-adjusted Mueller–Hinton, 18 h
Protocol: as §3

[13] = system: Staphylococcus aureus [ATCC 27660]; experiment: Bacterial MIC assay (Hancock modified broth assay); format: cell-based; conditions: cation-adjusted Mueller–Hinton, 18 h; for MIC: Staphylococcus aureus, ATCC27660
Protocol: as §3

Row | SMILES | MIC [2] | EC50 (MRGPRX2) | MIC [3] | MIC [4] | MIC A. fumigatus [4] | cytotoxic effects on HepG2 cells at concentrations relevant for antifungal activity [5] | CC50 at 1 h [6] | cytotoxic effects on 3T3 cells at concentrations relevant for antifungal activity [7] | CC50 at 1 h [8] | MIC C. albicans [2] | MIC A. flavus [3] | MIC [9] | MIC [10] | MIC [11] | MIC [12] | MIC [13] | percentage degranulation (β-hexosaminidase release) (MRGPRX2) | fold less cytotoxic than Compound 2 [7] | also measured
1 | N=C(N)NCCCCC(=O)Nc1cc(C(F)(F)F)cc(NC(=O)c2cc(C(=O)Nc3cc(C(F)(F)F)cc(NC(=O)CCCCNC(=N)N)c3O[C@@H]3CCNC3)ncn2)c1O[C@@H]1CCNC1 [Brilacidin] |  |  |  |  |  |  |  |  |  |  |  |  |  |  |  |  |  |  | efficacy in rabbit model of MRSA-induced keratitis [1]: displays efficacy
2 | Cc1cc(C#CCNC(=N)N)ccc1-c1nnc(-c2ccc(C#CCNC(=N)N)cc2)o1 [Compound 1] | 0.78 to 1.56 µg/mL (≈ 1.83 to 3.66 µM) | 0.8 µM | 6.25 µg/mL (≈ 14.7 µM) | 12.5 to 50 µg/mL (≈ 29.3 to 117 µM) | 12.5 to 50 µg/mL | little to no cytotoxic effects | 257 µM | little to no cytotoxic effects | 209 µM |  |  |  |  |  |  |  |  |  | 
3 | N=C(N)N1CC=C(c2ccc(-c3nnc(-c4ccc(C5=CCN(C(=N)N)CC5)cc4)o3)cc2)CC1 [Compound 2] | 0.39 µg/mL (≈ 0.832 µM) | 3 µM | 0.39 µg/mL (≈ 0.832 µM) | 0.39 µg/mL (≈ 0.832 µM) | 0.39 µg/mL (≈ 0.832 µM) | little to no cytotoxic effects | 151 µM | little to no cytotoxic effects | 124 µM | 0.39 µg/mL (≈ 0.832 µM) | 0.39 µg/mL (≈ 0.832 µM) | > 100 µg/mL | 3.1 µg/mL (≈ 6.62 µM) | > 100 µg/mL | > 100 µg/mL | 0.1 µg/mL (≈ 0.213 µM) |  |  | Bacterial MIC Escherichia coli [10]: 3.1 µg/mL; Bacterial MIC Staphylococcus aureus [13]: 0.1 µg/mL
4 | C1=C(c2ccc(-c3cn(-c4ccc(C5=CCNCC5)cc4)nn3)cc2)CCNC1 [Compound 3] | > 100 µg/mL | 1.8 µM | > 100 µg/mL | > 100 µg/mL | > 100 µg/mL |  | 111 µM |  | 60 µM | > 100 µg/mL | > 100 µg/mL |  |  |  |  |  |  |  | 
5 | Cc1c(-c2ccc(N3CCNCC3)cc2)ncnc1-c1ccc(N2CCNCC2)cc1 [Compound 4] | > 100 µg/mL | 0.4 µM | > 100 µg/mL | > 100 µg/mL |  |  | > 1560 µM |  | 883 µM |  |  | > 100 µg/mL | > 100 µg/mL | > 100 µg/mL | > 100 µg/mL | > 100 µg/mL | 20–25% | 2–10 fold | 
6 | c1cc(-c2ccc(N3CCNCC3)cc2)cc(-c2ccc(N3CCNCC3)cc2)n1 [Compound 5] | > 100 µg/mL | 0.38 µM | > 100 µg/mL | > 100 µg/mL |  |  | 447 µM |  | 200 µM |  |  | > 100 µg/mL | > 100 µg/mL | > 100 µg/mL | > 100 µg/mL | > 100 µg/mL | 20–25% | 2–10 fold | 
